Among the data in patent publication US20080318949A1, “Pyrazolopyrimidinone Derivatives, Their Preparation And Their Use” (Topharman Shanghai Co., Ltd, priority 2005, published 2008) are IC50 values, retold here.

pIC50: −log10 of the molar value.

In the experiment the target is T1, PDE5 from human platelets (Homo sapiens, UniProt O76074).
T1 construct: from tissue; host or cells: human platelets
Description: PDE5 inhibitory activity test (scintillation proximity assay). The following applies: PDE5 from human platelets. It counts as biochemical. From the text: The PDE5 and PDE3 were isolated form human platelets, while the PDE6 was isolated form bovine retinas. The enzyme inhibitory activity test conducted immediately after the enzymes had been isolated, using a scintillation proximity assay for the direct detection of AMP/GMP by the TRKQ7100 and TRKQ7090 kit. In summary, the effect of PDE inhibitors was investigated by assaying a fixed amount of enzyme in the presence of varying inhibitor concentrations and low substrate. The final assay volume was made up to 100 μl with 10 μl assay buffer (50 mM Tris/HCl PH 7.5, 8.3 mM MgCl2, 1.7 mM EGTA), and water. Reactions were initiated with enzyme, incubate for 30 minutes at 30° C. and terminated with 50 μl yttrium silicate SPA beads suspension containing zinc sulphate. Shook for 20 minutes and settled for 30 minutes in the dark, then counted on a BECKMAN LS6500 MULTI-PURPOSE SCINTILLATION COUNTER. The IC50 value for the compounds according the present invention was calculated according the counts.
According to the above-mentioned method, the inhibitory activities of some compounds of formula IA and IB according to the invention against PDE5 from human platelets were determined.
With “1-methyl-5-{2-ethoxy-5-[bis(3-acetoxypropyl)amidosulfonyl]phenyl}-3-n-propyl-1,6-dihydro-7H-pyrazolo[4,3-d]pyrimidin-7-one [Example 108]”, the pIC50 (usually the negative decadic logarithm of the IC50, by convention in mol/L) is 7.76.
The molecule “1-methyl-5-{2-ethoxy-5-{[1-ethyl-1-[2-[1-ethyl-1-(2-hydroxyethoxyethyl)]amino]ethyl]amidosulfonyl}phenyl}-3-n-propyl-1,6-dihydro-7H-pyrazolo[4,3-d]pyrimidin-7-one [Example 20]” had a pIC50 of 9.30.
The result for “1-methyl-5-{2-ethoxy-5-{[1-methyl-1-[2-[1-methyl-1-(2-hydroxyethyl)]amino]ethyl]amidosulfonyl}phenyl}-3-n-propyl-1,6-dihydro-7H-pyrazolo[4,3-d]pyrimidin-7-one [Example 21]” reads 9.03; that for “1-methyl-5-{2-methoxyethoxy-5-[bis(2-hydroxyethyl)amidosulfonyl]phenyl}-3-n-propyl-1,6-dihydro-7H-pyrazolo[4,3-d]pyrimidin-7-one [Example 10]”, 7.65.
To “1-methyl-5-{2-propoxy-5-[[1-(2-hydroxyethoxyethyl)-1-(2-morpholin-1-yl)ethyl]amidosulfonyl]phenyl}-3-n-propyl-1,6-dihydro-7H-pyrazolo[4,3-d]pyrimidin-7-one [Example 104]” belongs 7.88.
Molecule “1-methyl-5-{2-propoxy-5-[[1-(2-pyridylmethyl)-1-(2-piperidin-1-yl)ethyl]amidosulfonyl]phenyl}-3-n-propyl-1,6-dihydro-7H-pyrazolo[4,3-d]pyrimidin-7-one [Example 87]” showed a pIC50 of 8.06.
To “1-methyl-5-{2-propoxy-5-[[1-(3-ethoxyethyl)-1-(2-hydroxyethyl)]amidosulfonyl]phenyl}-3-n-propyl-1,6-dihydro-7H-pyrazolo[4,3-d]pyrimidin-7-one [Example 116]” belongs 7.95; to “1-methyl-5-{2-propoxy-5-[[1-benzyl-1-(2-pyrrolidin-1-yl)ethyl]amidosulfonyl]phenyl}-3-n-propyl-1,6-dihydro-7H-pyrazolo[4,3-d]pyrimidin-7-one [Example 84]”, 7.93; to “1-methyl-5-{2-propoxy-5-[[1-ethyl-1-(2-acetoxyethyl)]amidosulfonyl]phenyl}-3-n-propyl-1,6-dihydro-7H-pyrazolo[4,3-d]pyrimidin-7-one [Example 94]”, 8.27.
The result for `CCOc1ccc(S(=O)(=O)N(CCOC(C)=O)CCOC(C)=O)cc1-c1nc2c(CC)nn(C)c2c(=O)[nH]1` [Example 6, 1-methyl-5-{2-ethoxy-5-[bis(2-acetoxyethyl)amidosulfonyl]phenyl}-3-ethyl-1,6-dihydro-7H-pyrazolo[4,3-d]pyrimidin-7-one] reads 9.13.
The molecule `CCOc1ccc(S(=O)(=O)N(CCOC(=O)c2cccnc2)CCOC(=O)c2cccnc2)cc1-c1nc2c(CC)nn(C)c2c(=O)[nH]1` [Example 7, 1-methyl-5-{2-ethoxy-5-[bis(2-nicotinoyloxyethyl)amidosulfonyl]phenyl}-3-ethyl-1,6-dihydro-7H-pyrazolo[4,3-d]pyrimidin-7-one] had a pIC50 of 9.30.
The result for `CCOc1ccc(S(=O)(=O)N(CCO)CCO)cc1-c1nc2c(CC)nn(C)c2c(=O)[nH]1` [Example 8] reads 8.67; that for `CCCc1nn(C)c2c(=O)[nH]c(-c3cc(S(=O)(=O)N(CCOC(C)=O)CCOC(C)=O)ccc3OCCOC)nc12` [Example 9, 1-methyl-5-{2-methoxyethoxy-5-[bis(2-acetoxyethyl)amidosulfonyl]phenyl}-3-n-propyl-1,6-dihydro-7H-pyrazolo[4,3-d]pyrimidin-7-one], 7.77; that for `CCCc1nn(C)c2c(=O)[nH]c(-c3cc(S(=O)(=O)N(CCOC)CCN(CC)CC)ccc3OCC)nc12` [Example 11, 1-methyl-5-{2-ethoxy-5-[[1-(2-diethylaminoethyl)-1-(2-methoxyethyl)]amidosulfonyl]phenyl}-3-n-propyl-1,6-dihydro-7H-pyrazolo[4,3-d]pyrimidin-7-one], 7.42.
To `CCCc1nn(C)c2c(=O)[nH]c(-c3cc(S(=O)(=O)N(CCOC(C)=O)CCN(CC)CC)ccc3OCC)nc12` [Example 12, 1-methyl-5-{2-ethoxy-5-[[1-(2-diethylaminoethyl)-1-(2-acetoxyethyl)]amidosulfonyl]phenyl}-3-n-propyl-1,6-dihydro-7H-pyrazolo[4,3-d]pyrimidin-7-one] belongs 8.16; to `CCCc1nn(C)c2c(=O)[nH]c(-c3cc(S(=O)(=O)N(CCO)CCN(CC)CC)ccc3OCC)nc12` [Example 13, 1-methyl-5-{2-ethoxy-5-[1-(2-diethylaminoethyl)-1-(2-hydroxyethyl)amidosulfonyl]phenyl}-3-n-propyl-1,6-dihydro-7H-pyrazolo[4,3-d]pyrimidin-7-one], 8.13.
Turning to `CCCOc1ccc(S(=O)(=O)N(CCO)CCN(CC)CC)cc1-c1nc2c(CCC)nn(C)c2c(=O)[nH]1` [Example 14, 1-methyl-5-{2-propoxy-5-[1-(2-diethylaminoethyl)-1-(2-hydroxyethyl)amidosulfonyl]phenyl}-3-n-propyl-l,6-dihydro-7H-pyrazolo[4,3-d]pyrimidin-7-one], the negative-log IC50 (pIC50) was 9.06.
To `CCCc1nn(C)c2c(=O)[nH]c(-c3cc(S(=O)(=O)N(CCOCCOC(C)=O)CCN(CC)CC)ccc3OCC)nc12` [Example 15, 1-methyl-5-{2-ethoxy-5-[1-(2-diethylaminoethyl)-1-(2-acetoxyethoxyethyl)amidosulfonyl]phenyl}-3-n-propyl-1,6-dihydro-7H-pyrazolo[4,3-d]pyrimidin-7-one] belongs 7.97; to `CCCc1nn(C)c2c(=O)[nH]c(-c3cc(S(=O)(=O)N(CCOCCO)CCN(CC)CC)ccc3OCC)nc12` [Example 16, 1-methyl-5-{2-ethoxy-5-[1-(2-diethylaminoethyl)-1-(2-hydroxyethoxyethyl)amidosulfonyl]phenyl}-3-n-propyl-1,6-dihydro-7H-pyrazolo[4,3-d]pyrimidin-7-one], 7.87; to `CCCc1nn(C)c2c(=O)[nH]c(-c3cc(S(=O)(=O)N(CC)CCN(CC)CCOC(C)=O)ccc3OCC)nc12` [Example 17], 8.07.
The result for `CCCc1nn(C)c2c(=O)[nH]c(-c3cc(S(=O)(=O)N(CC)CCN(CC)CCO)ccc3OCC)nc12` [Example 18] reads 8.20.
The result for `CCOc1ccc(S(=O)(=O)N(CC)CCN(CC)CCOC(C)=O)cc1-c1nc2c(CC)nn(CC)c2c(=O)[nH]1` [Example 19, 1-ethyl-5-{2-ethoxy-5-{[1-ethyl-1-[2-[1-ethyl-1-(2-acetoxyethyl)]amino]ethyl]amidosulfonyl}phenyl}-3-n-propyl-1,6-dihydro-7H-pyrazolo[4,3-d]pyrimidin-7-one] reads 8.37; that for `CCCc1nn(C)c2c(=O)[nH]c(-c3cc(S(=O)(=O)N(C)CCN(C)CCOCCOCCOCc4ccccc4)ccc3OCC)nc12` [Example 22, 1-methyl-5-{2-ethoxy-5-{[1-methyl-1-[2-[1-methyl-1-(2-benzyloxyethoxyethoxyethyl)]amino]ethyl]amidosulfonyl}phenyl}-3-n-propyl-1,6-dihydro-7H-pyrazolo[4,3-d]pyrimidin-7-one], 9.53; that for `CCCOc1ccc(S(=O)(=O)N(C)CCN(C)CCO)cc1-c1nc2c(CCC)nn(C)c2c(=O)[nH]1` [Example 23, 1-methyl-5-{2-propoxy-5-{[1-methyl-1-[2-[1-methyl-1-(2-hydroxyethyl)]amino]ethyl]amidosulfonyl}phenyl}-3-n-propyl-1,6-dihydro-7H-pyrazolo[4,3-d]pyrimidin-7-one], 10.14.
`CCCc1nn(C)c2c(=O)[nH]c(-c3cc(S(=O)(=O)N(CCN4CCOCC4)Cc4ccccc4)ccc3OC)nc12` [Example 26, 1-methyl-5-{2-methoxy-5-[[1-benzyl-1-(2-morpholin-1-yl)ethyl]amidosulfonyl]phenyl}-3-n-propyl-1,6-dihydro-7H-pyrazolo[4,3-d]pyrimidin-7-one] had a pIC50 of 7.60.
`CCOc1ccc(S(=O)(=O)N(CCN2CCOCC2)Cc2ccccc2)cc1-c1nc2c(CC)nn(C)c2c(=O)[nH]1` [Example 27, 1-methyl-5-{2-ethoxy-5-[[1-benzyl-1-(2-morpholin-1-yl)ethyl]amidosulfonyl]phenyl}-3-ethyl-1,6-diydro-7H-pyrazolo[4,3-d]pyrimidin-7-one] showed a pIC50 of 9.34.
`CCCc1nn(C)c2c(=O)[nH]c(-c3cc(S(=O)(=O)N(CCOCCO)CCN4CCOCC4)ccc3OCC)nc12` [Example 28, 1-methyl-5-{2-ethoxy-5-[[1-(2-hydroxyethoxyethyl)-1-(2-morpholin-1-yl)ethyl]amidosulfonyl]phenyl}-3-n-propyl-1,6-dihydro-7H-pyrazolo[4,3-d]pyrimidin-7-one] showed a negative-log IC50 (pIC50) of 9.17.
The result for `CCCc1nn(C)c2c(=O)[nH]c(-c3cc(S(=O)(=O)N(CCO)CCN4CCCCC4)ccc3OCC)nc12` [Example 29, 1-methyl-5-{2-ethoxy-5-[[1-(2-hydroxyethyl)-1-(2-piperidin-1-yl)ethyl]amidosulfonyl]phenyl}-3-n-propyl-1,6-dihydro-7H-pyrazolo[4,3-d]pyrimidin-7-one] reads 9.51.
In the case of `CCCOc1ccc(S(=O)(=O)N(CCCO)CCCO)cc1-c1nc2c(CCC)nn(C)c2c(=O)[nH]1` [Example 37], the pIC50 was 8.31.
